Measured values as given in patent US20040171795A1, “Novel peptides” (priority 2000, published 2004).

How the values were obtained:
[1] = Measurement of turbidity in BSA; format: physicochemical; conditions: BSA 1%, peptide 50 μM, absorbance at 600 nm
Description: The solutions were evaluated for their absorbance at a wavelength of 600 nm by using a spectrophotometer (DU640, manufactured by Beckman).

[2] = system: cell (Vero, T24 or A549 of Example 9; not given); test: Nucleic acid-introducing ability, luciferase-expressing plasmid (procedure of Example 9); format: cell-based
Source text: A cell line established from monkey kidney (Vero cell) and a human bladder cancer cell (T24 cell) purchased from American Type Culture Collection (ATCC) and human lung cancer cell (A549 cell) purchased from Dainippon Pharmaceutical were inoculated on a 24 well culture plate (manufactured by NALGEN NUNC) at 1×10^5 cells/well. Vero cell and A549 cell were cultivated in DMEM (manufactured by Life Technologies Oriental) supplemented with 10% fetal bovine serum (hereinafter referred to as FBS, manufactured by NICHIREI), and T24 cell was cultivated in McCoy's 5a (manufactured by Life Technologies Oriental) supplemented with 10% FBS in 5% CO2 atmosphere at 37° C. for 24 hours. After removing the medium, opti-MEM (manufactured by Life Technologies Oriental) prepared to have the concentration of the luciferase-expressing plasmid prepared in Example 7 of 1 μg/mL and the concentration of the peptide prepared in Example 1 of 1.25, 2.5, or 5 μM was added, and the cells were cultivated for 5 hours. Next, in the case of Vero cell and A549 cell, the culture medium was replaced with DMEM supplemented with 10% FBS, and in the case of T24 cell, the medium was replaced with McCoy's 5a supplemented with 10% FBS, and cultivation was continued in 5% CO2 atmosphere and at 37° C. for another 24 hours. The luciferase activity expressed in the cell was then measured by the method instructed in luciferase assay system (manufactured by Promega). To be more specific, the cells were washed with phosphate-buffered saline (hereinafter referred to as PBS, manufactured by SIGMA), and the cells were lyzed with Passive Lysis Buffer attached to the kit. 20 μL of this cell lysate and 100 μL of the Luciferase Assay Reagent II attached to the kit was added to a fluorescence-measuring plate (Microlite™ 1 plate, manufactured by Dynatech), and after mixing, fluorescence was measured for 1 second by using a multilabel counter (ARVO™ SY1420 MULTILABEL COUNTER, manufactured by Wallac Beltold.
Concentration of the protein in the cell lysate was measured by mixing 8 μL of the cell lysate and 200 μL of the protein assay solution (manufactured by Biorad) with 792 μL of ultrapure water in a disposable cuvette (UV fluorescent cuvette A204X, manufactured by Funakoshi), allowing the mixture to stand for 5 minutes at room temperature, and measuring the absorption at 595 nm with a spectrophotometer (DU640, manufactured by Beckman). Bovine serum albumin (BSA) was used for the standard protein. By using the thus obtained results, count per 1 second per 1 mg of protein of the cell lysate was calculated to thereby use the count as the luciferase activity, and the highest count in the three conditions of different peptide concentration was designated the gene-introducing ability of the peptide.
It is to be noted that the nucleic acid-introducing ability was classified as described below on the bases of the fluorescent count per 1 mg of protein per 1 second (cps/mg protein).

Vero = test: Luciferase plasmid introduction versus phosphatidyl serine translocation; format: cell-based, monkey
Source text: (§1) A cell line established from monkey kidney (Vero cell) and a human bladder cancer cell (T24 cell) purchased from American Type Culture Collection (ATCC) and human lung cancer cell (A549 cell) purchased from Dainippon Pharmaceutical were inoculated on a 24 well culture plate (manufactured by NALGEN NUNC) at 1×10^5 cells/well. Vero cell and A549 cell were cultivated in DMEM (manufactured by Life Technologies Oriental) supplemented with 10% fetal bovine serum (hereinafter referred to as FBS, manufactured by NICHIREI), and T24 cell was cultivated in McCoy's 5a (manufactured by Life Technologies Oriental) supplemented with 10% FBS in 5% CO2 atmosphere at 37° C. for 24 hours. […] The luciferase activity expressed in the cell was then measured by the method instructed in luciferase assay system (manufactured by Promega). […] 20 μL of this cell lysate and 100 μL of the Luciferase Assay Reagent II attached to the kit was added to a fluorescence-measuring plate (Microlite™ 1 plate, manufactured by Dynatech), and after mixing, fluorescence was measured for 1 second by using a multilabel counter (ARVO™ SY1420 MULTILABEL COUNTER, manufactured by Wallac Beltold. […]

plasmid (pUC119) = test: Binding ability to plasmid (electrophoresis); conditions: charge ratio (+/−ratio) of 3
Description: The plasmid prepared by the procedure described in Example 7 (pUC119; final concentration, 20 μg/mL) and the peptides prepared by the procedure described in Examples 1 to 3 were mixed in 20 mM Tris HCl buffer (pH=7.2) containing 150 mM NaCl at a charge ratio (+/−ratio) of 0 to 3, and the mixture was allowed to stand at 37° C. for 30 minutes. Electrophoresis was then conducted on 1% agarose gel to thereby determine the binding of the plasmid and the peptide.
(§2) The +/−ratio (charge ratio) indicated in FIG. 11 is the ratio of the number (+) of the positively-charged groups in the peptide to the number (−) of negatively-charged groups in the plasmid. As evident in FIG. 11, the amount of plasmid that became bound to the peptide increased with the increase in the charge ratio (+/−ratio), and the plasmid was fully bound to the peptide at a charge ratio (+/−ratio) of 3. The peptides of SEQ ID NO:2 to SEQ ID NO:24 were also found to bind at a charge ratio (+/−ratio) of 3.

A549 = test: Luciferase plasmid introduction versus phosphatidyl serine translocation; format: cell-based, human
Source text: as §1

T24 = test: as above; format: cell-based, human
Source text: as §1

21mer oligonucleotide = test: Binding ability to oligonucleotide (electrophoresis); conditions: charge ratio (+/−ratio) of 10
Description: The 21mer oligonucleotide prepared by the procedure described in Example 6 (final concentration, 6.7 μM) and the peptide prepared by the procedure described in Examples 1 to 3 were mixed in 20 mM Tris-HCl buffer (pH=7.2) containing 150 mM NaCl at a charge ratio (+/−ratio) of 0 to 10, and the mixture was allowed to stand at 37° C. for 30 minutes. Next, 7.5 μL of this solution was mixed with an equal amount of Tris-borate buffer (pH=8.2) containing 80% formamide, and electrophoresis was conducted on 25% polyacrylamide gel containing 7M urea. After the electrophoresis, the gel was stained with 5% aqueous solution of Stains all (manufactured by Funakoshi) containing 50% formamide and washed with water to thereby determine the binding of the oligonucleotide and the peptide.
as §2, with “10” for “11”, “nucleic acid.” for “plasmid.”, “10,” for “11,”, “oligonucleotide” for “plasmid”, “10.” for “3.”

Luciferase activity (Vero): 2.5 × 10^6 cps/mg protein | binding of plasmid to the peptide (plasmid (pUC119)): fully bound | Luciferase activity (A549): 8.7 × 10^4 cps/mg protein | Luciferase activity (T24): 7.8 × 10^3 cps/mg protein | binding of oligonucleotide to the peptide (21mer oligonucleotide): fully bound
Substance: SEQ ID NO: 1: peptide having the amino acid sequence of SEQ ID NO:1, made by solid phase synthesis (TRYLRIHPRSWVHQIALRLRYLRIHPRSWVHQIALRS; synthetic peptide using an automatic peptide synthesizer)
OD 600 [1]: 0.03 | Nucleic acid-introducing ability ([2]; class of fluorescent count per 1 mg of protein per 1 second, highest of peptide 1.25, 2.5, 5 μM, plasmid 1 μg/mL): 3+ (1,000,000 to less than 10,000,000) | ability of introducing the nucleic acid into a cell ([2]; procedure of Example 9, luciferase-expressing plasmid): found to have the ability of introducing the nucleic acid into a cell
